{"source": "patent US9937133B2", "about": "“Treatment of fibrosis” (UCL BUSINESS PLC, priority 2014, dated 2018)", "type_in_all_cases": "cell-based, human", "key": {"F-C fibroblasts": {"tested_on": "F-C fibroblasts", "assay": "Matrix contraction by control fibroblasts after ALDH inhibition", "source_text": "(§1) Next the ability of F-PemI and F-PemU fibroblasts to organise matrix through matrix contraction was investigated. […] This diminished contractile profile was similar in F-PemI and F-PemU fibroblasts.\n(§2) To find out whether ALDH1A3 was also contributing to this phenotypic contractility we looked at the contractile profiles of F-PemI, F-PemU and F-C fibroblasts after DEAB or disulfiram ALDH inhibition."}, "[1]": {"tested_on": "F-PemI and F-PemU fibroblasts", "assay": "Matrix contraction by OcMMP fibroblasts after ALDH inhibition", "source_text": "as §1, §2"}, "[2]": {"tested_on": "F-PemI and F-PemU fibroblasts", "assay": "Collagen production of OcMMP fibroblasts after ALDH inhibition (collagen type I competitive ELISA)", "experimental": "To investigate whether there was differential matrix production in OcMMP, primary conjunctival fibroblasts explanted from conjunctival tissue samples from OcMMP patients with (F-PemI) and without (F-PemU) and control (F-C) patients were analysed for their matrix production and secretion (see FIG. 2A).\nTo ascertain whether this enhanced collagen production was mediated by ALDH1A3, the collagen production profiles of F-PemI, F-PemU and F-C fibroblasts were assessed after ALDH inhibition with DEAB or disulfiram (see FIGS. 2B to 2E, where “+” and “−” indicate the presence or absence of DEAB/disulfiram respectively).\nA competitive ELISA (MD Bioproducts, Zurich, Germany) method was used to quantify the matrix production from a monolayer of F-C, F-PemU and F-PemI fibroblasts. The competitive assay is a colormetric based immunoassay utilises a biotinylated polyclonal antibody to Collagen Type I and purified human collagen type I as an antigen. […]\nEach experiment was carried out per manufacturer's instructions and performed with at least 4 experimental repeats and 3 biological repeats. […] Another method that has been noted for quantifying the level of collagen production in OcMMP fibroblasts is Q-PCR quantification of collagen type 1 mRNA expression post TGF-β induction (Razzaque et al., 2003, Investigative ophthalmology and visual science, 44: 3417-3423, 1616-1621 and 1998-2003). […]"}, "[3]": {"tested_on": "F-PemI and F-PemU fibroblasts", "assay": "Alpha-smooth muscle actin alignment under a stressed matrix", "source_text": "Finally to have an indication of the differentiation capacity of F-PemI and F-PemU fibroblasts, their expression and alignment of alpha-smooth muscle actin under a stressed matrix was investigated. F-PemI and F-PemU lack the ability to align their alpha-smooth muscle actin into stress fibers when compared to F-C fibroblasts. The diminished alignment of alpha-smooth muscle actin was similar in both F-PemI and F-PemU fibroblasts.\nTo elucidate whether ALDH1A3 is contributing to this impaired alignment of alpha-smooth muscle actin in F-PemI and F-PemU fibroblasts, their alpha-smooth muscle actin alignment was imaged after being treated with DEAB and disulfiram."}, "[4]": {"tested_on": "F-PemI and F-PemU fibroblasts", "assay": "Proliferation of OcMMP fibroblasts after ALDH inhibition", "experimental": "The proliferative capacity of F-PemI, F-PemU and F-C fibroblasts was also assessed. […] The proliferative capacities of F-PemI and F-PemU were similar (see FIG. 4A).\nTo find out whether ALDH1A3 also mediates this anti-proliferative phenotype we monitored the proliferation of F-PemI, F-PemU and F-C fibroblasts after addition of DEAB or disulfiram."}}, "note": "Like-named read-outs stand apart in the source and are kept apart here."}
{"smiles": "CCN(CC)c1ccc(C=O)cc1", "note": "[DEAB, 4-(diethylamino)benzaldehyde]", "values": [{"measurement": "contractile profile of F-C fibroblasts", "setting": "F-C fibroblasts", "value": "did not have any significant effects"}, {"measurement": "contractility of F-PemI and F-PemU fibroblasts", "setting": "[1]; increasing concentrations", "value": "increased the contractility of F-PemI and F-PemU fibroblasts in a dose dependent manner"}, {"measurement": "contraction of F-PemI and F-PemU fibroblasts", "setting": "[1]; lowest concentration of 10^−7M", "value": "control cell levels of contraction"}, {"measurement": "F-PemI and F-PemU fibroblast collagen production", "setting": "[2]; 10^−7M", "value": "brought down to control cell levels"}, {"measurement": "F-PemI and F-PemU fibroblast collagen production", "setting": "[2]; increasing concentrations", "value": "dose dependent and significant decrease"}, {"measurement": "alignment of alpha-smooth muscle actin in F-PemI and F-PemU fibroblasts", "setting": "[3]", "value": "markedly improved the alignment"}, {"measurement": "proliferation of F-PemI and F-PemU fibroblasts", "setting": "[4]", "value": "proliferating at a significantly enhanced rate"}, {"measurement": "proliferation of F-PemI and F-PemU fibroblasts", "setting": "[4]; lowest concentration of 10^−7M", "value": "proliferated at similar level to F-C fibroblasts"}]}
